# According to patent US6432924B1, “Method of treating disorders characterized by overexpression of cytidine deaminase or deoxycytidine deaminase” (East Carolina University, priority 1993, dated 2002):
# What was measured:
# HT-29SF^CD cells = assay: Transwell culture, 5mAZC exposure of cytidine deaminase overexpressing cells; assay type: cell-based, human; details: for Number of viable cells HT-29SF^CD: quintuplicate, Transwell
# Description: (§1) HT-29SF^CD cells are a subline of HT-29SF human colonic adenocarcinoma cells that were selected for overexpression of cytidine deaminase. HT-29SF cells were plated in the bottom compartment, and HT-29SF^CD cells in the top compartment of a “Transwell” culture dish (1,000 cells each). A semipermeable membrane separates the two compartments of the Transwell, such that any drug administered in the tissue culture media bathe both compartments equally. 5-mAZC was administered continuously for 72 hrs. at the indicated concentrations. The numbers in the x-axis indicate the concentration (in μM) at which 5mAZC was administered continuously for 72 hours. The numbers on the y-axis indicate the number of surviving cells. The circular (●) data points represent the dose response for the HT-29SF^CD cells. The square (▪) data points represent the dose response for the HT-29SF cells.
# HT-29SF human adenocarcinoma cells naturally express a high level of cytidine deaminase (CD). HT-29SF^CD is a subline of the HT-29SF line that express even higher CD levels than normal (about 5.4 times the expression level of HT-29SF cells). In order to see whether cells that overexpress cytidine deaminase are more sensitive to 5mAZC than other cells, HT-29SF^CD cells were plated in the top compartment of a Transwell culture dish, while HT-29SF cells were placed in the bottom compartment (1000 cells each). A semipermeable membrane separated the two compartments of the Transwell, such that drugs administered in the tissue culture media bathe both compartments equally. 5mAZC was administered continuously for 72 hrs at concentrations ranging from 0 μM to 50 μM. The results of this experiment confirm the idea that cells that highly overexpress CD are sensitive to 5mAZC.
# Based upon the results obtained in example 1 above, a dose of 50 μM 5mAZC was selected for more in-depth analysis. Two experiments were performed, in quintuplicate, in the same Transwell dishes, containing the HT-29SF cells and the HT-29SF^CD cells in compartments separated only by a membrane permeable to 5mAZC.
# HT-29SF cells [1] = assay: Transwell culture, 5mAZC exposure of parent cells; assay type: cell-based, human; details: quintuplicate
# Description: as §1
# HT-29SF human adenocarcinoma cells naturally express a high level of cytidine deaminase (CD). HT-29SF^CD is a subline of the HT-29SF line that express even higher CD levels than normal (about 5.4 times the expression level of HT-29SF cells). In order to see whether cells that overexpress cytidine deaminase are more sensitive to 5mAZC than other cells, HT-29SF^CD cells were plated in the top compartment of a Transwell culture dish, while HT-29SF cells were placed in the bottom compartment (1000 cells each). […]
# [2] = tested on: HT-29SF^CD (cytidine deaminase producing)cells; assay: Human tumor xenograft model, HT-29SF^CD tumor (right scapular region); assay type: in vivo, Balb/C nu/nu mice; details: 150 mg/kg twice daily intraperitoneal, 5 weeks, N=2
# Description: (§2) One of these mice received twice daily intraperitoneal doses of 150 mg/kg of 5mAZC. The other mouse received saline only. This treatment continued for 5 weeks, at which time the animals were euthanized and the solid tumors were dissected free and weighed.
# [3] = tested on: HT-29SF (non cytidine deaminase producing)cells; assay: Human tumor xenograft model, HT-29SF tumor (left scapular region); assay type: in vivo, Balb/C nu/nu mice; details: 150 mg/kg twice daily intraperitoneal, 5 weeks, N=2
# Description: as §2
# HT-29SF cells [4] = assay: HT-29SF subcutaneous xenograft, tumor volume on Day 29; assay type: in vivo, BALB/c nude mice
# Description: In another experiment, thirty BALB/c nude mice received subcutaneous injections of 5×10^6 HT-29SF cells. Twelve of the animals received 600 mg/kg/day 5mAZC in the flank for 28 days. Eighteen animals received saline injections on the same schedule. On Day 29, the animals were sacrificed and the tumor volume was quantified by standard methods. The average tumor volume for the control group receiving saline was 509±292 mm . […] The results of Examples 2 and 3 show clearly that 5mAZC is activated in vitro and in vivo into molecular species exclusively toxic to tumor cells that overexpress cytidine deaminase.
# [5] = Experiment 1, 50 μM 5mAZC, 1000 cells plated
smiles,measurement,setting,value
"Cc1cn([C@H]2C[C@H](N=[N+]=[N-])[C@@H](CO)O2)c(=O)nc1N [5mAZC, 5-methyl-2′,3′-dideoxy-3′-azidocytidine]",Number of viable cells HT-29SF^CD,HT-29SF^CD cells; [5],33.8 ± 17.1
same,"sensitivity of cells that highly overexpress CD to 5mAZC (number of surviving cells, FIG. 1)","HT-29SF^CD cells; HT-29SF^CD cells, 0 μM to 50 μM continuously for 72 hrs",sensitive
same,Number of viable cells HT-29SF^CD,"HT-29SF^CD cells; second experiment (head prints Example 2), 50 μM 5mAZC",45.4 ± 15.6
same,Number of viable cells HT-29SF,HT-29SF cells [1]; [5],797 ± 68
same,Number of viable cells HT-29SF,"HT-29SF cells [1]; second experiment, 50 μM 5mAZC",867.2 ± 29.4
same,tumor weight HT-29SF^CD+5mAZC,[2],0.22 g
same,tumor weight HT-29SF+5mAZC,[3],1.02 ± 0.13 g
same,average reduction in size (tumor volume vs saline control),HT-29SF cells [4]; 600 mg/kg/day for 28 days,46%
same,average tumor volume,"HT-29SF cells [4]; 600 mg/kg/day in the flank for 28 days, saline control 509±292",273±97 mm^3
